For orientation: MIC means the smallest concentration in the dilution series that meets the test's criterion for growth inhibition. A high value points to weaker potency.

Results on five molecules are retold here after patent EP3822285A1, “VARIANT NISIN PEPTIDES” (University College Cork-National University of Ireland, Cork, priority 2019, dated 2021).

Common to all, as to type: cell-based
One assay relates to Thermus scotoductus SE-1. The experiment in a line: Agar diffusion assay with cell free supernatant of producing strains. The following applies: zone diameter relative to Nisin A wild type (100). The method, then:
(§1) Agar diffusion assays were carried out in triplicate using nisin producing and indicator (T. thermophilus HB27 and T. scotoductus Se-1) strains. Both the producer and indicator strains were cultured as per conditions described above. One ml of overnight culture of indicators were added to 50ml of molten Castenholz agar, briefly swirled and poured. Wells were made using sterile glass pipette. To generate cell free supernatant from nisin producing strains, 10 mls of overnight cultures of the strains were centrifuged at 950g for 20 mins. The cell free supernatant was transferred to a sterile tube. 50 µl of cell free supernatant was added to wells described above. Plates were incubated at 55°C for 3 days and the zone of clearance measured.
(§2) The cell free supernatant of nisin A and nisin variant producing L. lactis was used to determine the bioactivity of these lantibiotics against T. thermophilus HB27 and T. scotoductus SE-1 using agar diffusion assays, with the zone of clearance representing the bioactivity of the producing strain (i.e., representing a combination of the amount of the peptide produced and the specific activity of that peptide). […] Among the variants tested were those with altered N-terminal domains. The N-terminal domain of nisin is important for binding with the pyrophosphate moiety of lipid II to mediate pore formation in the cell membrane. Lysine (K) at position 12, which serves as a small flexible region between ring B and C, and is one of among the 5 positively charged residues (K12, K22, K34, H27, […]) of nisin A that contributes to its cationic nature and its attraction to the cell envelope.
A general note: In agar diffusion tests the substance spreads into inoculated agar from a disc or well.

Assay [1] concerns Thermus thermophilus HB27. The assay is described as above. The following applies: zone diameter relative to Nisin A wild type (100). The method, then: as §1, §2
For the next assay, the system named is T. aquaticus. As to the kind of experiment: Minimum inhibitory concentration assay (Thermus). Conditions: for MIC: pure peptide, mean of triplicate assays. Here is the method:
(§3) Minimum inhibitory concentration (MIC) determinations for gram negative Thermus strains were carried out in triplicate in round bottom microtitre plates (Corning). 96 well microtitre plates were pre-treated with bovine serum albumin (BSA) prior to addition of the peptides. Briefly, to each well of the microtire plates 200 µl of d.H2O (filtered with 0.2 µm filter) containing 1% (w/w) BSA was added and incubated at 37°C for 30 mins. The wells were washed with 200 µl of IX phosphate buffered saline (PBS) for 2 times after removing 1% BSA d.H2O. 100 µl of growth media, i.e., Castenholz, was added to each well. […] Target strains were grown overnight as per conditions mention above, 0.5 ml of overnight was subcultured in to 10 mls of fresh Castenholz medium and allowed to grow to an OD600 of ∼0.5. 20µl of this subculture was added to 980µl of media, 150µl of this dilution added to 14.85 ml of growth media. 100µl of this dilution added to each well resulting in a final inoculum of ∼10^5 cfu/ml in 200µl. The plates were incubated at 55° C for 3 days and the MIC was determined as the lowest concentration at which no growth was visible.
(§4) The bioactivity of cell-free supernatant can be influenced by altered diffusion rates, solubility, production or specific activity. To determine to what extent, if any, the bioactivity noted above is due to increased specific activity, nisin A (control) and the derivatives were purified and their molecular weights confirmed by MALDI TOF mass spectrometry (Table: 6) (Figure: 4). These peptides were used to perform minimum inhibitory concentration assays against six Thermus strains, i.e., T. thermophilus HB27, T. scotoductus SE-1, T. rehai, T. oshimai, T. aquaticus and T. brockianus.

For the next assay, the system named is T. brockianus. The experiment in a line: Minimum inhibitory concentration assay (Thermus). The following applies: pure peptide, mean of triplicate assays. Here is the method:
as §3, §4

The test system of a further assay is T. oshimai. As to the kind of experiment: Minimum inhibitory concentration assay (Thermus). Conditions: for MIC: pure peptide, mean of triplicate assays. Here is the method:
as §3, §4

In a further assay the test system is T. rehai. The experiment in a line: Minimum inhibitory concentration assay (Thermus). The following applies: for MIC: pure peptide, mean of triplicate assays. Here is the method: as §3, §4
A further assay relates to T. scotoductus SE-1. As to the kind of experiment: Minimum inhibitory concentration assay (Thermus). The following applies: for MIC: pure peptide, mean of triplicate assays. Here is the method: as §3, §4
A further assay deals with T. thermophilus HB27. The experiment in a line: Minimum inhibitory concentration assay (Thermus). Conditions: for MIC: pure peptide, mean of triplicate assays. Here is the method:
as §3, §4

Converted amounts (≈) assume the structure as drawn. “And” between values parts separate entries of the source, which are not always exact repeats. Equal values may be shown once. Marks after values point to notes of the source that are not given here.

With `C=C(NC(=O)[C@@H](NC(=O)[C@H](Cc1c[nH]cn1)NC(=O)[C@@H](NC(=O)[C@H](CO)NC(=O)[C@@H]1CS[C@@H](C)[C@H]2NC(=O)[C@H](C)NC(=O)[C@H](NC(=O)[C@H](CCCCN)NC(=O)[C@H](CCSC)NC(=O)[C@H](CC(N)=O)NC(=O)[C@@H]3CS[C@@H](C)[C@@H](NC(=O)[C@H](CO)NC(=O)[C@@H]4CS[C@@H](C)[C@@H](NC(=O)[C@@H]5CSC[C@@H](NC(=O)/C(=C/C)NC(=O)[C@@H](N)[C@@H](C)CC)C(=O)N[C@@H]([C@@H](C)CC)C(=O)NC(=C)C(=O)N[C@@H](CC(C)C)C(=O)N5)C(=O)N5CCC[C@H]5C(=O)NCC(=O)N4)C(=O)NCC(=O)N[C@@H](C)C(=O)N[C@@H](CC(C)C)C(=O)N[C@@H](CCSC)C(=O)NCC(=O)N3)[C@H](C)SC[C@H](NC2=O)C(=O)N[C@@H](Cc2c[nH]cn2)C(=O)N1)[C@@H](C)CC)C(C)C)C(=O)N[C@@H](CCCCN)C(=O)O` [K12S], the “% of wild type” value with Thermus scotoductus SE-1 was determined as 123%. In assay [1], the “% difference” value was found to be 125%. Moreover, the MIC turned out to be 0.0312 µM (≈ 0.103 µg/mL) against T. aquaticus; 0.0312 µM (≈ 0.103 µg/mL) against T. brockianus; 0.0156 µM (≈ 0.0517 µg/mL) with T. oshimai; 0.0156 µM (≈ 0.0517 µg/mL) in the assay with T. rehai; 0.0312 µM (≈ 0.103 µg/mL) in the assay with T. scotoductus SE-1; 0.0312 µM (≈ 0.103 µg/mL) in the assay on T. thermophilus HB27. Also, the “fold better activity than nisin A” value in the assay with T. scotoductus SE-1 worked out at 2 fold.
Regarding `C=C(NC(=O)[C@@H](NC(=O)[C@H](Cc1c[nH]cn1)NC(=O)[C@@H](NC(=O)[C@H](CO)NC(=O)[C@@H]1CS[C@@H](C)[C@H]2NC(=O)[C@H](C)NC(=O)[C@H](NC(=O)[C@H](CCCCN)NC(=O)[C@H](CCSC)NC(=O)[C@H](CC(N)=O)NC(=O)[C@@H]3CS[C@@H](C)[C@@H](NC(=O)[C@@H](NC(=O)[C@@H]4CS[C@@H](C)[C@@H](NC(=O)[C@@H]5CSC[C@@H](NC(=O)/C(=C/C)NC(=O)[C@@H](N)[C@@H](C)CC)C(=O)N[C@@H]([C@@H](C)CC)C(=O)NC(=C)C(=O)N[C@@H](CC(C)C)C(=O)N5)C(=O)N5CCC[C@H]5C(=O)NCC(=O)N4)C(C)C)C(=O)NCC(=O)N[C@@H](C)C(=O)N[C@@H](CC(C)C)C(=O)N[C@@H](CCSC)C(=O)NCC(=O)N3)[C@H](C)SC[C@H](NC2=O)C(=O)N[C@@H](Cc2c[nH]cn2)C(=O)N1)[C@@H](C)CC)C(C)C)C(=O)N[C@@H](CCCCN)C(=O)O` [K12V], in the assay on Thermus scotoductus SE-1, the “% of wild type” value is reported as 125* (0.04) %. The “% difference” value in assay [1] is reported as 145* (0.004) %. Further, the minimal inhibitory concentration (MIC) with T. aquaticus was 0.0156 µM (≈ 0.0519 µg/mL); with T. brockianus it was 0.0156 µM (≈ 0.0519 µg/mL); in the assay on T. oshimai it was 0.0156 µM (≈ 0.0519 µg/mL); against T. rehai, 0.0039 µM (≈ 0.013 µg/mL); in the assay on T. scotoductus SE-1 it was 103.9 µg/L and 0.0312 µM; against T. thermophilus HB27 it was 12.9 µg/L and 0.0039 µM. Also, the “fold better activity than nisin A” value with T. rehai, in the assay with T. scotoductus SE-1 and in the assay with T. thermophilus HB27 was 2 fold throughout.
`C=C(NC(=O)[C@@H](NC(=O)[C@H](Cc1c[nH]cn1)NC(=O)[C@@H](NC(=O)[C@H](CO)NC(=O)[C@@H]1CS[C@@H](C)[C@H]2NC(=O)[C@H](C)NC(=O)[C@H](NC(=O)[C@H](CCCCN)NC(=O)[C@H](CCSC)NC(=O)[C@@H]3CCCN3C(=O)[C@@H]3CS[C@@H](C)[C@@H](NC(=O)[C@H](CCCCN)NC(=O)[C@@H]4CS[C@@H](C)[C@@H](NC(=O)[C@@H]5CSC[C@@H](NC(=O)/C(=C/C)NC(=O)[C@@H](N)[C@@H](C)CC)C(=O)N[C@@H]([C@@H](C)CC)C(=O)NC(=C)C(=O)N[C@@H](CC(C)C)C(=O)N5)C(=O)N5CCC[C@H]5C(=O)NCC(=O)N4)C(=O)NCC(=O)N[C@@H](C)C(=O)N[C@@H](CC(C)C)C(=O)N[C@@H](CCSC)C(=O)NCC(=O)N3)[C@H](C)SC[C@H](NC2=O)C(=O)N[C@@H](Cc2c[nH]cn2)C(=O)N1)[C@@H](C)CC)C(C)C)C(=O)N[C@@H](CCCCN)C(=O)O` [N20P]: the “% of wild type” value in the assay on Thermus scotoductus SE-1 is on record as 115%. Further, the “% difference” value in assay [1] is listed as 97%. Further, the MIC in the assay with T. aquaticus stood at 0.0156 µM (≈ 0.0521 µg/mL); against T. brockianus, 0.0625 µM (≈ 0.209 µg/mL); with T. oshimai it was 0.0625 µM (≈ 0.209 µg/mL); against T. rehai, 0.0625 µM (≈ 0.209 µg/mL); with T. scotoductus SE-1, 0.125 µM (≈ 0.417 µg/mL); in the assay with T. thermophilus HB27 it was 0.0156 µM (≈ 0.0521 µg/mL).
Turning to `C=C(NC(=O)[C@@H](NC(=O)[C@H](Cc1c[nH]cn1)NC(=O)[C@@H](NC(=O)[C@H](CO)NC(=O)[C@@H]1CS[C@@H](C)[C@H]2NC(=O)[C@H](C)NC(=O)[C@H](NC(=O)[C@H](CCCCN)NC(=O)[C@H](CCSC)NC(=O)[C@H](CO)NC(=O)[C@@H]3CS[C@@H](C)[C@@H](NC(=O)[C@H](CCCCN)NC(=O)[C@@H]4CS[C@@H](C)[C@@H](NC(=O)[C@@H]5CSC[C@@H](NC(=O)/C(=C/C)NC(=O)[C@@H](N)[C@@H](C)CC)C(=O)N[C@@H]([C@@H](C)CC)C(=O)NC(=C)C(=O)N[C@@H](CC(C)C)C(=O)N5)C(=O)N5CCC[C@H]5C(=O)NCC(=O)N4)C(=O)NCC(=O)N[C@@H](C)C(=O)N[C@@H](CC(C)C)C(=O)N[C@@H](CCSC)C(=O)NCC(=O)N3)[C@H](C)SC[C@H](NC2=O)C(=O)N[C@@H](Cc2c[nH]cn2)C(=O)N1)[C@@H](C)CC)C(C)C)C(=O)N[C@@H](CCCCN)C(=O)O` [N20S], the “% of wild type” value in the assay on Thermus scotoductus SE-1 amounted to 112%. In assay [1], the “% difference” value is reported as 119%. Also, the MIC in the assay with T. aquaticus was 0.0078 µM (≈ 0.026 µg/mL); against T. brockianus it was 0.0156 µM (≈ 0.0519 µg/mL); against T. oshimai, 0.000975 µM (≈ 0.00324 µg/mL); in the assay on T. rehai it was 0.00195 µM (≈ 0.00649 µg/mL); with T. scotoductus SE-1, 0.3125 µM (≈ 1.04 µg/mL); against T. thermophilus HB27, 0.0039 µM (≈ 0.013 µg/mL).
With `C=C(NC(=O)[C@@H](NC(=O)[C@H](Cc1c[nH]cn1)NC(=O)[C@@H](NC(=O)[C@H](CO)NC(=O)[C@@H]1CS[C@@H](C)[C@H]2NC(=O)[C@H](C)NC(=O)[C@H](NC(=O)[C@H](CCCCN)NC(=O)[C@H](CCSC)NC(=O)[C@H](CC(N)=O)NC(=O)[C@@H]3CS[C@@H](C)[C@@H](NC(=O)[C@H](CCCCN)NC(=O)[C@@H]4CS[C@@H](C)[C@@H](NC(=O)[C@@H]5CSC[C@@H](NC(=O)/C(=C/C)NC(=O)[C@@H](N)[C@@H](C)CC)C(=O)N[C@@H]([C@@H](C)CC)C(=O)NC(=C)C(=O)N[C@@H](CC(C)C)C(=O)N5)C(=O)N5CCC[C@H]5C(=O)NCC(=O)N4)C(=O)NCC(=O)N[C@@H](C)C(=O)N[C@@H](CC(C)C)C(=O)N[C@@H](CCSC)C(=O)NCC(=O)N3)[C@H](C)SC[C@H](NC2=O)C(=O)N[C@@H](CCC(N)=O)C(=O)N1)[C@@H](C)CC)C(C)C)C(=O)N[C@@H](CCCCN)C(=O)O` [H27Q], the “% of wild type” value in the assay on Thermus scotoductus SE-1 was 115%. Besides, the “% difference” value in assay [1] was 136* (0.031) %. Further, the “fold better activity than nisin A” value is listed as 14 fold with T. aquaticus, 8 fold with T. oshimai, 8 fold with T. rehai and 8 fold in the assay on T. thermophilus HB27. Moreover, the MIC was 3.26 µg/L and 0.000975 µM with T. aquaticus; 0.0156 µM (≈ 0.0522 µg/mL) against T. brockianus; 3.2 µg/L and 0.000975 µM in the assay with T. oshimai; 3.2 µg/L and 0.000975 µM in the assay with T. rehai; 0.0625 µM (≈ 0.209 µg/mL) in the assay on T. scotoductus SE-1; 3.2 µg/L and 0.000975 µM with T. thermophilus HB27.
